Assay results as given in ChEMBL document CHEMBL5143740, “Discovery of Novel Phosphoinositide-3-Kinase α Inhibitors with High Selectivity, Excellent Bioavailability, and Long-Acting Efficacy for Gastric Cancer” (J Med Chem, 2022).
The source made the active and inactive calls. The rule behind the calls is not given here.

Tests used:
[1] = Oral bioavailability in Sprague-Dawley rat at 10 mg/kg measured after 24 hrs; type: ADME, organism-based; settings: in vivo
PC-3 = assay: Antiproliferative activity against human PC-3 cells assessed as inhibition of cell growth incubated for 72 hrs by CCK8 assay; type: functional, cell-based; settings: PC-3, 72 h
MGC-803 [2] = assay: Inhibition of cell migration in human MGC-803 cells at 2 to 8 uM incubated for 24 hrs by crystal violet staining based transwell migration assay; type: functional; settings: dose 2-8 µM
MGC-803 [3] = assay: Antiproliferative activity against human MGC-803 cells assessed as inhibition of cell growth incubated for 72 hrs by CCK8 assay; type: functional, cell-based; settings: MGC-803, 72 h
MGC-803 [4] = assay: Inhibition of cell invasion in human MGC-803 cells at 2 to 8 uM incubated for 24 hrs by microscopic analysis; type: functional, cell-based; settings: dose 2-8 µM
MGC-803 [5] = assay: Induction of apoptosis in human MGC-803 cells assessed as viable cells at 2 uM incubated for 36 hrs by annexin V-FITC based flow cytometry analysis (reference value: 94.51 %); type: functional; settings: read-out: Activity
MGC-803 [6] = assay: Induction of apoptosis in human MGC-803 cells assessed as early apoptotic cells at 2 uM incubated for 36 hrs by annexin V-FITC based flow cytometry analysis (reference value: 2.49 %); type: functional
[7] = AUC (0 to infinitive) in Sprague-Dawley rat at 1 mg/kg, iv measured after 24 hrs; type: ADME, organism-based; design: time 24 hrs, dose 1 mg/kg, route iv; settings: in vivo
U-251 = assay: Antiproliferative activity against human U-251 cells assessed as inhibition of cell growth incubated for 72 hrs by CCK8 assay; type: functional, cell-based; settings: U-251, 72 h
MGC-803 [8] = assay: Induction of apoptosis in human MGC-803 cells assessed as necrotic cells at 8 uM incubated for 36 hrs by annexin V-FITC based flow cytometry analysis (reference value: […]); type: functional
HepG2 = assay: Antiproliferative activity against human HepG2 cells assessed as inhibition of cell growth incubated for 72 hrs by CCK8 assay; type: functional, cell-based; settings: HepG2, 72 h
MGC-803 [9] = assay: Downregulation of PI3Kalpha protein expression in human MG C-803 cells at 2 to 8 uM by Western blotting analysis; type: functional, cell-based; settings: dose 2-8 µM
Homo sapiens [10] = organism: Homo sapiens; assay: Selectivity index, ratio of IC50 for inhibition of PI3Kgamma (unknown origin) to IC50 for inhibition of PI3Kalpha (unknown origin)
MGC-803 [11] = assay: Antitumor activity against human MGC-803 cells xenografted in BALB/c nude mouse assessed as tumor growth inhibition at 30 mg/kg, po administered every day for 3 weeks in presence of taxol; type: functional; settings: MGC-803, 504 h, read-out: TGI
SK-OV-3 = assay: Antiproliferative activity against human SK-OV-3 cells assessed as inhibition of cell growth incubated for 72 hrs by CCK8 assay; type: functional, cell-based; settings: SK-OV-3, 72 h
[12] = target: Phosphatidylinositol 4,5-bisphosphate 3-kinase catalytic subunit alpha isoform (Homo sapiens, UniProt P42336); assay: Inhibition of PI3Kalpha (unknown origin) using PIP2 as substrate in presence of ATP measured after 1 hr by ADP-Glo assay
Sequence of Phosphatidylinositol 4,5-bisphosphate 3-kinase catalytic subunit alpha isoform (P42336 whole entry, canonical isoform): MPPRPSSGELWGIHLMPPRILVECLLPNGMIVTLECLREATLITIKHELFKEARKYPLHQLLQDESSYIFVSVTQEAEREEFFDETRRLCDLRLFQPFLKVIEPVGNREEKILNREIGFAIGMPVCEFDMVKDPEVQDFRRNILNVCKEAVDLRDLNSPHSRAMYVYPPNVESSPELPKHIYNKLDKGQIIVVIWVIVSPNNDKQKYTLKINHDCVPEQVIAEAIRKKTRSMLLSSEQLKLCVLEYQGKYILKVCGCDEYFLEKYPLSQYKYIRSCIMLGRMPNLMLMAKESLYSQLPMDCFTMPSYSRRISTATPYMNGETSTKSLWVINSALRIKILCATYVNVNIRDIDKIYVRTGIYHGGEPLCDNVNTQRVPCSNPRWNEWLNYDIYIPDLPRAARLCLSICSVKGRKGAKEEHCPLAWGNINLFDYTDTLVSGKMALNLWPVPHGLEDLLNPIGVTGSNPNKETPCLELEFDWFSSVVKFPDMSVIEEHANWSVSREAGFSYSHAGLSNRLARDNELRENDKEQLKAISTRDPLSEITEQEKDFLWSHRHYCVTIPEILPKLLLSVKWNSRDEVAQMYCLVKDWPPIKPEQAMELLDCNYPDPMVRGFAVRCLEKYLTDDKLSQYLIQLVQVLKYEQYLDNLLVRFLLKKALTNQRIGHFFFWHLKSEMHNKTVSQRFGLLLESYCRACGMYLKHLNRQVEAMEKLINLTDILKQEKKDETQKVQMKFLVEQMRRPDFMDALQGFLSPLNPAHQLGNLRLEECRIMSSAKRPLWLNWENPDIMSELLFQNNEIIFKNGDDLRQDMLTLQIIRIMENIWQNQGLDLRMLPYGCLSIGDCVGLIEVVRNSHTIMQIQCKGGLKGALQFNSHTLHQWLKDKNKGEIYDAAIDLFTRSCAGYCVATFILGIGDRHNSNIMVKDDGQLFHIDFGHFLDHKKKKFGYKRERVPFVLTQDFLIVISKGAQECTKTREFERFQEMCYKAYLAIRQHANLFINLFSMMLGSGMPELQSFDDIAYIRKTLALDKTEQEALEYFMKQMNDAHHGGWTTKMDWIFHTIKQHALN

[13] = Tmax in Sprague-Dawley rat at 10 mg/kg, po measured after 24 hrs; type: ADME, organism-based; settings: in vivo
[14] = target: Phosphatidylinositol 4,5-bisphosphate 3-kinase catalytic subunit gamma isoform (Homo sapiens, UniProt P48736)
Sequence of Phosphatidylinositol 4,5-bisphosphate 3-kinase catalytic subunit gamma isoform (P48736 whole entry, canonical isoform): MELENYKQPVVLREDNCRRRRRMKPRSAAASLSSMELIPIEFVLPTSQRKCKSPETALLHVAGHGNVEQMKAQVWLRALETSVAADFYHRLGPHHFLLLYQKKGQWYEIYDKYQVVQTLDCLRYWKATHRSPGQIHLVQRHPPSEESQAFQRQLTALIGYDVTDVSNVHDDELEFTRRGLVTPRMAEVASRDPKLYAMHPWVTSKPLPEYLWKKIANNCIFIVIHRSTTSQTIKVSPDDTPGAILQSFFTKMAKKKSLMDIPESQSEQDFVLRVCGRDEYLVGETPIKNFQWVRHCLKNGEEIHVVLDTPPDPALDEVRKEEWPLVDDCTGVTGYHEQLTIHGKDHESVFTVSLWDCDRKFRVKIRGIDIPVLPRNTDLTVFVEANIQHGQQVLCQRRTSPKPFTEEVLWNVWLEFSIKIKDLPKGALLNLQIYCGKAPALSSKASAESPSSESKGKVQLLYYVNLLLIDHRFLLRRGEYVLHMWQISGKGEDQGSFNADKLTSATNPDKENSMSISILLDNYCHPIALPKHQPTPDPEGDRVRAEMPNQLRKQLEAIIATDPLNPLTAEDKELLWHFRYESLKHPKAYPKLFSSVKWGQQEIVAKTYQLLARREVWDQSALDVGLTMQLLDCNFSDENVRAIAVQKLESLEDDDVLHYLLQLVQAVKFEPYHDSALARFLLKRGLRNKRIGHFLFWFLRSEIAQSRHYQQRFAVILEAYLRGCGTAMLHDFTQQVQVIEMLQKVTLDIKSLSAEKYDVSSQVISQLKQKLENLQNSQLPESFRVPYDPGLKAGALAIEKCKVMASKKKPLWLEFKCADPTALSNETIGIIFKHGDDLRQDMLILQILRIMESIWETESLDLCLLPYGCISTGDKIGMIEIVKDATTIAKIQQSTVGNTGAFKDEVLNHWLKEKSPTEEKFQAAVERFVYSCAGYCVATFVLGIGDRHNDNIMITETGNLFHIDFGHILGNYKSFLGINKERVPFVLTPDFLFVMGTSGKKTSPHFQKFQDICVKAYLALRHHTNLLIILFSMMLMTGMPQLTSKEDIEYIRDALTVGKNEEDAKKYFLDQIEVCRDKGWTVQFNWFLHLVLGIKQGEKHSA

MGC-803 [15] = assay: Antitumor activity against human MGC-803 cells xenografted in BALB/c nude mouse assessed as tumor growth inhibition at 10 mg/kg, ip administered every day for 3 weeks; type: functional; settings: MGC-803, 504 h, read-out: TGI
MGC-803 [16] = assay: Induction of apoptosis in human MGC-803 cells assessed as necrotic cells at 4 uM incubated for 36 hrs by annexin V-FITC based flow cytometry analysis (reference value: […]); type: functional
[17] = Toxicity in BALB/c mouse xenografted with human MG C-803cells assessed as effect on body weight at 10 mg/kg, IP administered every day for 3 week; type: organism-based; settings: in vivo, 504 h, time 3 weeks
[18] = Half life in Sprague-Dawley rat at 1 mg/kg, iv measured after 24 hrs; type: ADME, organism-based; settings: in vivo
MCF7 = assay: Antiproliferative activity against human MCF7 cells assessed as inhibition of cell growth incubated for 72 hrs by CCK8 assay; type: functional, cell-based; settings: MCF7, 72 h
MGC-803 [19] = assay: Antitumor activity against human MGC-803 cells xenografted in BALB/c nude mouse assessed as reduction in tumor volume at 30 mg/kg, po administered every day for 3 weeks in presence of taxol by vernier caliper method; type: functional, organism-based
Homo sapiens [20] = organism: Homo sapiens; assay: Selectivity index, ratio of IC50 for inhibition of PI3Kdelta (unknown origin) to IC50 for inhibition of PI3Kalpha (unknown origin)
K562 = assay: Antiproliferative activity against human K562 cells assessed as inhibition of cell growth incubated for 72 hrs by CCK8 assay; type: functional, cell-based; settings: K562, 72 h
[21] = Cmax in Sprague-Dawley rat at 1 mg/kg, iv measured after 24 hrs; type: ADME, organism-based; design: time 24 hrs, dose 1 mg/kg, route iv; settings: in vivo
MGC-803 [22] = assay: Antimetastatic activity against human MGC-803 cells assessed as […] of E-cadherin expression in at 2 to 8 uM by Western blot analysis; type: functional, cell-based; settings: dose 2-8 µM
MGC-803 [23] = assay: Induction of apoptosis in human MGC-803 cells assessed as early apoptotic cells at 4 uM incubated for 36 hrs by annexin V-FITC based flow cytometry analysis (reference value: 2.49 %); type: functional
[24] = Toxicity in BALB/c mouse xenografted with human MG C-803cells assessed as effect on body weight at 30 mg/kg, po administered every day for 3 week in presence of taxol; type: organism-based; settings: in vivo, 504 h, time 3 weeks
[25] = target: Phosphatidylinositol 4,5-bisphosphate 3-kinase catalytic subunit beta isoform (Homo sapiens, UniProt P42338); assay: Inhibition of PI3Kbeta (unknown origin) in presence of [33P]-ATP incubated for 2 hrs by hotspot kinase assay
Sequence of Phosphatidylinositol 4,5-bisphosphate 3-kinase catalytic subunit beta isoform (P42338 whole entry, canonical isoform): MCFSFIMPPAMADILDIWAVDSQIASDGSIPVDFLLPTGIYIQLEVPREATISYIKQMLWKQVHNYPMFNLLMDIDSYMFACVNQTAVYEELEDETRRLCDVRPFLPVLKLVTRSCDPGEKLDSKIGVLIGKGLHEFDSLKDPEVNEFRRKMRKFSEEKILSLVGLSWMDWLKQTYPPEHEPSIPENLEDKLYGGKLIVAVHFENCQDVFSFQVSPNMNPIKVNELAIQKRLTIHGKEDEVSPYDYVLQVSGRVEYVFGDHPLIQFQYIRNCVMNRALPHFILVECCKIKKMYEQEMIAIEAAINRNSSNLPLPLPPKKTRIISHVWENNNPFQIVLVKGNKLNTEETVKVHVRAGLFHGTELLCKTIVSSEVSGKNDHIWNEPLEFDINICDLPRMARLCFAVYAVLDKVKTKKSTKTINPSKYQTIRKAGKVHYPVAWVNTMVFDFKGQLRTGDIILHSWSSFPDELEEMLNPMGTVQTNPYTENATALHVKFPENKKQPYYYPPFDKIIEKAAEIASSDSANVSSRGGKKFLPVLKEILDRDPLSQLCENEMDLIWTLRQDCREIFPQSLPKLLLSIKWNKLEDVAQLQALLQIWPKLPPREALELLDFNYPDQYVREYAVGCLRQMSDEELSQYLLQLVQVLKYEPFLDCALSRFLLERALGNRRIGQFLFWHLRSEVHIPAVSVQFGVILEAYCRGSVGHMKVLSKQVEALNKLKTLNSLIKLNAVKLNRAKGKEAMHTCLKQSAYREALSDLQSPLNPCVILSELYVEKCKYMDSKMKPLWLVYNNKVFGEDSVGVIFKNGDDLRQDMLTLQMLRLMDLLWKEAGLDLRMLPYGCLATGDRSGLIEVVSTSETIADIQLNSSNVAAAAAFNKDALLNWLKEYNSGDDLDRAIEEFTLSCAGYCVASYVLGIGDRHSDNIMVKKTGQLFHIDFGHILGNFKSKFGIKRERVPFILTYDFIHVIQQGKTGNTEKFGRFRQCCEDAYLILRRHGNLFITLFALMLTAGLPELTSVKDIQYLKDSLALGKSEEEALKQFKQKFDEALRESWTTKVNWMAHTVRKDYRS

MOLT-4 = assay: Antiproliferative activity against human MOLT-4 cells assessed as inhibition of cell growth incubated for 72 hrs by CCK8 assay; type: functional, cell-based; settings: MOLT-4, 72 h
MGC-803 [26] = assay: Induction of apoptosis in human MGC-803 cells assessed as late apoptotic cells at 2 uM incubated for 36 hrs by annexin V-FITC based flow cytometry analysis (reference value: 2.61 %); type: functional
MDA-MB-231 = assay: Antiproliferative activity against human MDA-MB-231 cells assessed as inhibition of cell growth incubated for 72 hrs by CCK8 assay; type: functional, cell-based; settings: MDA-MB-231, 72 h
[27] = AUC (0 to t) in Sprague-Dawley rat at 10 mg/kg, po measured after 24 hrs; type: ADME, organism-based; design: dose 10 mg/kg, time 24 hrs, route po; settings: in vivo
MGC-803 [28] = assay: Induction of apoptosis in human MGC-803 cells assessed as late apoptotic cells at 4 uM incubated for 36 hrs by annexin V-FITC based flow cytometry analysis (reference value: 2.61 %); type: functional
MGC-803 [29] = assay: Induction of apoptosis in human MGC-803 cells assessed as necrotic cells at 2 uM incubated for 36 hrs by annexin V-FITC based flow cytometry analysis (reference value: […]); type: functional
[30] = AUC (0 to t) in Sprague-Dawley rat at 1 mg/kg, iv measured after 24 hrs; type: ADME, organism-based; design: time 24 hrs, dose 1 mg/kg, route iv; settings: in vivo
MGC-803 [31] = assay: Induction of apoptosis in human MGC-803 cells assessed as viable cells at 4 uM incubated for 36 hrs by annexin V-FITC based flow cytometry analysis (reference value: 94.51 %); type: functional; settings: read-out: Activity

## Nc1nc2cc(-c3nc(N4CCOCC4)nc(N4CCOCC4)n3)ccc2o1
[1]
  bioavailability: 130%
PC-3
  IC50: 430 nM
MGC-803 [2]
  inhibition: Active
MGC-803 [3]
  IC50: 430 nM
MGC-803 [4]
  inhibition: Active
MGC-803 [5]
  viability at 2 µM: 87%
MGC-803 [6]
  Activity: 7.52%
[7]
  AUC(0-inf): 2920 ng·h/mL
U-251
  IC50: 430 nM
MGC-803 [8]
  Activity: 1.08%
HepG2
  IC50: 430 nM
MGC-803 [9]
  inhibition: Active
Homo sapiens [10]
  Ratio IC50: 29
MGC-803 [11]
  inhibition in vivo at 30 mg/kg: 63.9%
SK-OV-3
  IC50: 430 nM
[12]
  IC50: 4.4 nM
[13]
  Tmax: 9.33 h
[14]
  IC50: 128 nM
MGC-803 [15]
  inhibition in vivo at 10 mg/kg: 41.5%
MGC-803 [16]
  Activity: 1.11%
[17]
  Activity: Non-Toxic
[18]
  half-life: 377 min
MCF7
  IC50: 430 nM
MGC-803 [19]
  Activity: Active
Homo sapiens [20]
  Ratio IC50: 34
K562
  IC50: 430 nM
[21]
  Cmax: 455 ng/mL
MGC-803 [22]
  inhibition: Active
MGC-803 [23]
  Activity: 31.31%
[24]
  Activity: Non-Toxic
[25]
  IC50: 146 nM
MOLT-4
  IC50: 430 nM
MGC-803 [26]
  Activity: 4.55%
MDA-MB-231
  IC50: 430 nM
[27]
  AUC(0-t) at 24 h: 36700 ng·h/mL
MGC-803 [28]
  Activity: 5.01%
MGC-803 [29]
  Activity: 0.95%
[30]
  AUC(0-t) at 24 h: 2240 ng·h/mL
MGC-803 [31]
  viability at 4 µM: 62.6%
